{"source": "paper PMC10017709", "about": "“Structural basis of selective cannabinoid CB2 receptor activation” (Nature Communications, 2023)", "key": {"[1]": {"biological_target": "CB2R WT (Homo sapiens, UniProt P34972)", "sequence (P34972 whole entry)": "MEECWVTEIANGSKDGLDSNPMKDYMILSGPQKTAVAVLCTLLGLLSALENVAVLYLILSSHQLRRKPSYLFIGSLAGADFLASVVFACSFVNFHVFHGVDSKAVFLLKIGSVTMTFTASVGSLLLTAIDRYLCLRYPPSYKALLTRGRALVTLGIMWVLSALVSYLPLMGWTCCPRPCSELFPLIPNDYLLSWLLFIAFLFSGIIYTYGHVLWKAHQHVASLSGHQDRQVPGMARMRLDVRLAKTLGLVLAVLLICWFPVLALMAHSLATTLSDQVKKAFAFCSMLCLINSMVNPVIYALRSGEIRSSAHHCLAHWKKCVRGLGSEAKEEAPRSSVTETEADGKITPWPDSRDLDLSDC", "experiment": "[35S]GTPγS G protein activation assay, CB2R WT", "assay_type": "biochemical", "details": "for [35S]GTPγS binding, percentage of CP55,940: individual replicates"}, "[2]": {"biological_target": "CB2R-S285^7.39A (Homo sapiens, UniProt P34972, S285A)", "sequence (P34972 whole entry S285A)": "as the sequence (P34972 whole entry) above, with S285A counted along it", "experiment": "[35S]GTPγS assay, CB2R S285A mutant", "assay_type": "biochemical", "details": "S285A mutant"}, "[3]": {"biological_target": "T1, hCB2R (Homo sapiens, UniProt P34972)", "T1 construct": "host or cells: CHO-K1 (CHOK1_hCB2bgal, PathHunter), membranes", "experiment": "[3H]RO6957022 competition association assay", "assay_type": "binding", "details": "for percentage specific [3H]RO6957022 binding (competition association): individual replicates"}, "[4]": {"biological_target": "hCB1R WT (Homo sapiens, UniProt P21554)", "sequence (P21554 whole entry)": "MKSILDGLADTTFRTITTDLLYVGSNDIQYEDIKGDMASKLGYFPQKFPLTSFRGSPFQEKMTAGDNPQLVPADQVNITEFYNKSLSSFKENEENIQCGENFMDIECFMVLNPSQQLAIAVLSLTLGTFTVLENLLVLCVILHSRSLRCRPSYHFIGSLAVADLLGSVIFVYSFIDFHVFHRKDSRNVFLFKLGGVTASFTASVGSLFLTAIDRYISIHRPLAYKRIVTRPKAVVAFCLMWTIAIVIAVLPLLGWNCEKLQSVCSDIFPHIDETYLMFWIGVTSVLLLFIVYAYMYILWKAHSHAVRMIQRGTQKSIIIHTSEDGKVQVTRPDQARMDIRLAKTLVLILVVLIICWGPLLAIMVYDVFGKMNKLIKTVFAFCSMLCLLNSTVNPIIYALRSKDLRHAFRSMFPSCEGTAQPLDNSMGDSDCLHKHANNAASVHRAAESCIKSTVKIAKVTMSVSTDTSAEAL", "experiment": "[3H]CP55,940 displacement assay, CB1R WT", "assay_type": "binding"}, "[5]": {"biological_target": "CB2R-Quadruple^TM1,7 (Homo sapiens, UniProt P34972, C40S/K279T/K33Q/V36I)", "sequence (P34972 whole entry K33Q/V36I/C40S/K279T)": "as the sequence (P34972 whole entry) above, with K33Q, V36I, C40S, K279T counted along it", "experiment": "[35S]GTPγS assay, CB2R quadruple mutant", "assay_type": "biochemical", "details": "for [35S]GTPγS binding: QuadrupleTM1,7, individual replicates"}, "[6]": {"biological_target": "CB2R-I110^3.29L (Homo sapiens, UniProt P34972, I110L)", "sequence (P34972 whole entry I110L)": "as the sequence (P34972 whole entry) above, with I110L counted along it", "experiment": "[35S]GTPγS assay, CB2R I110L mutant", "assay_type": "biochemical", "details": "for [35S]GTPγS binding: I1103.29L, individual replicates"}}, "note": "“And” between values parts separate entries of the source, which are not always exact repeats. Equal entries are not always repeated."}
{"compound": "CC(C)CN1C(=O)CN(Cc2ccc(-c3ccc(F)c(CNC4CCOCC4)n3)cc2)C1=O", "note": "[LEI-102, 1-(4-(5-fluoro-6-(((tetrahydro-2H-pyran-4-yl)amino)methyl)pyridin-2-yl)benzyl)-3-isobutylimidazolidine-2,4-dione]", "values": [{"measurement": "Emax (%)", "setting": "[1]; CB2R WT, maximum effect compared to CP55,940", "value": "76 ± 1", "unit": "%"}, {"measurement": "EC50", "setting": "[1]; [35S]GTPγS, HEK293T membranes transiently expressing CB2R WT", "value": 126, "unit": "nM"}, {"measurement": "[35S]GTPγS binding, percentage of CP55,940", "setting": "[1]; log [agonist] (M) -5", "value": "76.96% and 72.92% and 77.27%"}, {"measurement": "[35S]GTPγS binding, percentage of CP55,940", "setting": "[1]; log [agonist] (M) -6", "value": "47.32% and 54.96% and 57.48%"}, {"measurement": "[35S]GTPγS binding, percentage of CP55,940", "setting": "[1]; log [agonist] (M) -7", "value": "8.09% and 19.22% and 13.61%"}, {"measurement": "[35S]GTPγS binding, percentage of CP55,940", "setting": "[1]; log [agonist] (M) -8", "value": "7.23% and 9.98% and 7.81%"}, {"measurement": "[35S]GTPγS binding, percentage of CP55,940", "setting": "[1]; log [agonist] (M) -9", "value": "-12.88% and -8.32% and -11.10%"}, {"measurement": "[35S]GTPγS binding, percentage of CP55,940", "setting": "[1]; log [agonist] (M) -10", "value": "-4.61% and 18.64% and -19.45%"}, {"measurement": "EC50", "setting": "[2]; HEK293T membranes", "value": 501, "unit": "nM"}, {"measurement": "pEC50", "setting": "[2]; HEK293T membranes", "value": "no significant effect"}, {"measurement": "Emax (%)", "setting": "[2]; at 10 µM compared to WT", "value": "45 ± 8", "unit": "%"}, {"measurement": "Kd", "setting": "[3]; KD = koff/kon, read-out: Kinetic KD", "value": 16.5, "unit": "nM"}, {"measurement": "residence time", "setting": "[3]; RT = 1/(60 ∙ koff)", "value": 16, "unit": "min"}, {"measurement": "percentage specific [3H]RO6957022 binding (competition association)", "setting": "[3]; Time 1 min", "value": "5.83% and -3.44% and 7.40%"}, {"measurement": "percentage specific [3H]RO6957022 binding (competition association)", "setting": "[3]; Time 3 min", "value": "23.25% and 21.50% and 9.87%"}, {"measurement": "percentage specific [3H]RO6957022 binding (competition association)", "setting": "[3]; Time 5 min", "value": "29.56% and 33.35% and 22.10%"}, {"measurement": "percentage specific [3H]RO6957022 binding (competition association)", "setting": "[3]; Time 7 min", "value": "39.12% and 26.72% and 31.06%"}, {"measurement": "percentage specific [3H]RO6957022 binding (competition association)", "setting": "[3]; Time 10 min", "value": "41.53% and 33.11% and 35.03%"}, {"measurement": "percentage specific [3H]RO6957022 binding (competition association)", "setting": "[3]; Time 20 min", "value": "47.20% and 49.02% and 32.99%"}, {"measurement": "percentage specific [3H]RO6957022 binding (competition association)", "setting": "[3]; Time 30 min", "value": "52.67% and 57.37% and 51.93%"}, {"measurement": "percentage specific [3H]RO6957022 binding (competition association)", "setting": "[3]; Time 45 min", "value": "51.61% and 58.35% and 49.36%"}, {"measurement": "percentage specific [3H]RO6957022 binding (competition association)", "setting": "[3]; Time 60 min", "value": "51.74% and 74.63% and 45.92%"}, {"measurement": "percentage specific [3H]RO6957022 binding (competition association)", "setting": "[3]; Time 90 min", "value": "53.57% and 66.52% and 52.04%"}, {"measurement": "percentage specific [3H]RO6957022 binding (competition association)", "setting": "[3]; Time 120 min", "value": "61.01% and 70.76% and 73.93%"}, {"measurement": "ET (engagement time)", "setting": "[3]; at 1 µM agonist, ET = 1/(kon ∙ 1 × 10-6)", "value": "16.0 ± 2.82", "unit": "s"}, {"measurement": "percentage specific [3H]CP55,940 binding", "setting": "[4]; CB1R - WT, 10 µM ligand, replicates 1-3", "value": "72.08 percentage and 95.14 percentage and 82.84 percentage"}, {"measurement": "Displacement (%) of [3H]CP55,940", "setting": "[4]; CB1R WT, 10 µM compound", "value": "17 ± 7", "unit": "%"}, {"measurement": "binding to CB1R", "setting": "[4]; [3H]CP55,940 displacement", "value": "did not bind"}, {"measurement": "selectivity (CB2R over CB1R)", "setting": "[4]; binding, CB2R vs CB1R", "value": "at least 1000 fold"}, {"measurement": "EC50", "setting": "[5]; Quadruple TM1,7 mutant, <5 when curve fit not finished", "value": 631, "unit": "nM"}, {"measurement": "Emax (%)", "setting": "[5]; Quadruple TM1,7 mutant, at 10 µM compared to WT", "value": "27 ± 5", "unit": "%"}, {"measurement": "[35S]GTPγS binding", "setting": "[5]; log [ligand] (M) -5", "value": "19.02 percentage of WT and 26.25 percentage of WT and 35.32 percentage of WT"}, {"measurement": "[35S]GTPγS binding", "setting": "[5]; log [ligand] (M) -6", "value": "18.24 percentage of WT and 27.33 percentage of WT and 15.57 percentage of WT"}, {"measurement": "[35S]GTPγS binding", "setting": "[5]; log [ligand] (M) -7", "value": "-20.33 percentage of WT and 5.34 percentage of WT"}, {"measurement": "[35S]GTPγS binding", "setting": "[5]; log [ligand] (M) -8", "value": "-17.90 percentage of WT and -15.60 percentage of WT and -7.82 percentage of WT"}, {"measurement": "[35S]GTPγS binding", "setting": "[5]; log [ligand] (M) -9", "value": "-5.85 percentage of WT and 6.13 percentage of WT and -3.78 percentage of WT"}, {"measurement": "EC50", "setting": "[6]; I110L mutant, HEK293T membranes", "value": 15.8, "unit": "nM"}, {"measurement": "Emax (%)", "setting": "[6]; I110L mutant, at 10 µM compared to WT", "value": "91 ± 3", "unit": "%"}, {"measurement": "[35S]GTPγS binding", "setting": "[6]; log [ligand] (M) -5", "value": "91.04 percentage of WT and 85.60 percentage of WT and 97.60 percentage of WT"}, {"measurement": "[35S]GTPγS binding", "setting": "[6]; log [ligand] (M) -6", "value": "71.11 percentage of WT and 90.00 percentage of WT and 68.00 percentage of WT"}, {"measurement": "[35S]GTPγS binding", "setting": "[6]; log [ligand] (M) -7", "value": "49.89 percentage of WT and 105.60 percentage of WT and 64.50 percentage of WT"}, {"measurement": "[35S]GTPγS binding", "setting": "[6]; log [ligand] (M) -8", "value": "38.52 percentage of WT and 44.70 percentage of WT and 17.20 percentage of WT"}, {"measurement": "[35S]GTPγS binding", "setting": "[6]; log [ligand] (M) -9", "value": "9.93 percentage of WT and -16.00 percentage of WT and -7.20 percentage of WT"}, {"measurement": "[35S]GTPγS binding", "setting": "[6]; log [ligand] (M) -10", "value": "-2.60 percentage of WT and -2.20 percentage of WT and -32.20 percentage of WT"}]}
